In brackets after ≈: the same amount, converted by molar mass.
Columns and labels:
[1] = tested on: Mycobacterium tuberculosis; assay: Antitubercular activity against Mycobacterium tuberculosis H37Rv ATCC 27294 after 28 days by agar dilution method; format: functional; conditions: H37Rv ATCC 27294, 672 h
[2] = Cytotoxicity against mouse RAW264.7 cells assessed as inhibition of cell viability at 50 uM after 72 hrs by MTT assay relative to control; format: cell-based; conditions: read-out: INH
[3] = tested on: Mycobacterium tuberculosis; assay: Potency index, ratio of ciprofloxacin MIC to compound MIC for Mycobacterium tuberculosis H37Rv ATCC 27294; format: functional
[4] = tested on: Mycobacterium tuberculosis; assay: Potency index, ratio of pyrazinamide MIC to compound MIC for Mycobacterium tuberculosis H37Rv ATCC 27294; format: functional

Row | Compound | MIC [1] [µg/mL] | cytotoxicity at 72 h, 50 µM [2] [%] | Ratio [3] | Ratio [4]
1 | CSc1ccc([C@@H]2[C@H]3CSCN3[C@]3(C(=O)Nc4ccc([N+](=O)[O-])cc43)[C@@]23C(=O)Oc2ccccc23)cc1 | 12.5 (≈ 23.5 µM) | – | – | –
2 | Cc1ccc([C@@H]2[C@H]3CSCN3[C@]3(C(=O)Nc4ccccc43)[C@@]23C(=O)Oc2ccccc23)cc1 | 12.5 (≈ 27.5 µM) | – | – | –
3 | CN1C[C@@H](c2ccc([N+](=O)[O-])cc2)[C@]2(C(=O)Oc3ccccc32)[C@@]12C(=O)Nc1ccccc12 | 3.12 (≈ 7.08 µM) | 29.5 | – | –
4 | O=C1Oc2ccccc2[C@@]12[C@H](c1ccccc1)[C@H]1CSCN1[C@]21C(=O)Nc2ccc(Br)cc21 | 25 (≈ 48.1 µM) | – | – | –
5 | CC[C@@H](CO)NCCN[C@@H](CC)CO [ETHAMBUTOL] | 1.56 (≈ 7.64 µM) | – | – | –
6 | COc1ccc([C@@H]2[C@H]3CSCN3[C@]3(C(=O)Nc4ccc([N+](=O)[O-])cc43)[C@@]23C(=O)Oc2ccccc23)cc1 | 25 (≈ 48.5 µM) | – | – | –
7 | O=C1Oc2ccccc2[C@@]12[C@H](c1ccc([N+](=O)[O-])cc1)[C@H]1CSCN1[C@]21C(=O)Nc2ccc(Br)cc21 | 3.12 (≈ 5.54 µM) | 43.1 | – | –
8 | Cc1ccc([C@@H]2[C@H]3CSCN3[C@]3(C(=O)Nc4ccc([N+](=O)[O-])cc43)[C@@]23C(=O)Oc2ccccc23)cc1 | > 25 | – | – | –
9 | NNC(=O)c1ccncc1 [ISONIAZID] | 0.05 (≈ 0.365 µM) | – | – | –
10 | CSc1ccc([C@@H]2CN(C)[C@]3(C(=O)Nc4ccccc43)[C@@]23C(=O)Oc2ccccc23)cc1 | 3.12 (≈ 7.06 µM) | 28.7 | – | –
11 | O=C1Oc2ccccc2[C@@]12[C@H](c1ccccc1)[C@H]1CSCN1[C@]21C(=O)Nc2ccc([N+](=O)[O-])cc21 | 3.12 (≈ 6.44 µM) | 35.2 | – | –
12 | CSc1ccc([C@@H]2[C@H]3CSCN3[C@]3(C(=O)Nc4ccc(Br)cc43)[C@@]23C(=O)Oc2ccccc23)cc1 | 6.25 (≈ 11.1 µM) | 28.1 | – | –
13 | O=C(O)c1cn(C2CC2)c2cc(N3CCNCC3)c(F)cc2c1=O [CIPROFLOXACIN] | 3.13 (≈ 9.45 µM) | – | – | –
14 | CSc1ccc([C@@H]2[C@H]3CSCN3[C@]3(C(=O)Nc4ccccc43)[C@@]23C(=O)Oc2ccccc23)cc1 | 12.5 (≈ 25.7 µM) | – | – | –
15 | COc1ccc([C@@H]2[C@H]3CSCN3[C@]3(C(=O)Nc4ccccc43)[C@@]23C(=O)Oc2ccccc23)cc1 | 1.56 (≈ 3.32 µM) | 27.5 | 2 | 4
16 | O=C1Oc2ccccc2[C@@]12[C@H](c1ccc(Br)cc1)[C@H]1CSCN1[C@]21C(=O)Nc2ccc([N+](=O)[O-])cc21 | 12.5 (≈ 22.1 µM) | – | – | –
17 | O=C1Oc2ccccc2[C@@]12[C@H](c1ccccc1)[C@H]1CSCN1[C@]21C(=O)Nc2ccccc21 | 25 (≈ 56.8 µM) | – | – | –
18 | COc1ccc([C@@H]2[C@H]3CSCN3[C@]3(C(=O)Nc4ccc(Br)cc43)[C@@]23C(=O)Oc2ccccc23)cc1 | 50 (≈ 91 µM) | – | – | –
19 | O=C1Oc2ccccc2[C@@]12[C@H](c1ccc(Br)cc1)[C@H]1CSCN1[C@]21C(=O)Nc2ccc(Br)cc21 | 3.12 (≈ 5.22 µM) | 32.4 | – | –
20 | COc1ccc([C@@H]2CN(C)[C@]3(C(=O)Nc4ccccc43)[C@@]23C(=O)Oc2ccccc23)cc1 | 12.5 (≈ 29.3 µM) | – | – | –
21 | CO[C@H]1/C=C/O[C@@]2(C)Oc3c(C)c(O)c4c(O)c(c(/C=N/N5CCN(C)CC5)c(O)c4c3C2=O)NC(=O)/C(C)=C\C=C\[C@H](C)[C@H](O)[C@@H](C)[C@@H](O)[C@@H](C)[C@H](OC(C)=O)[C@@H]1C [RIFAMPIN] | 0.1 (≈ 0.122 µM) | – | – | –
22 | CN1C[C@@H](c2ccccc2)[C@]2(C(=O)Oc3ccccc32)[C@@]12C(=O)Nc1ccccc12 | 12.5 (≈ 31.5 µM) | – | – | –
23 | O=C1Oc2ccccc2[C@@]12[C@H](c1ccc(Br)cc1)[C@H]1CSCN1[C@]21C(=O)Nc2ccccc21 | 3.12 (≈ 6.02 µM) | 28.5 | – | –
24 | O=C1Oc2ccccc2[C@@]12[C@H](c1ccc([N+](=O)[O-])cc1)[C@H]1CSCN1[C@]21C(=O)Nc2ccccc21 | 1.56 (≈ 3.21 µM) | 20.7 | 2 | 4
25 | O=C1Oc2ccccc2[C@@]12[C@H](c1ccc([N+](=O)[O-])cc1)[C@H]1CSCN1[C@]21C(=O)Nc2ccc([N+](=O)[O-])cc21 | 50 (≈ 94.2 µM) | – | – | –
26 | O=C1Oc2ccccc2[C@@]12[C@H](c1ccc(Cl)cc1)[C@H]1CSCN1[C@]21C(=O)Nc2ccccc21 | 3.12 (≈ 6.58 µM) | 32.3 | – | –
27 | O=C1Oc2ccccc2[C@@]12[C@H](c1ccc(Cl)cc1)[C@H]1CSCN1[C@]21C(=O)Nc2ccc(Br)cc21 | 3.12 (≈ 5.64 µM) | 34.6 | – | –
28 | Cc1ccc([C@@H]2[C@H]3CSCN3[C@]3(C(=O)Nc4ccc(Br)cc43)[C@@]23C(=O)Oc2ccccc23)cc1 | 12.5 (≈ 23.4 µM) | – | – | –
29 | CN1C[C@@H](c2ccc(Cl)cc2)[C@]2(C(=O)Oc3ccccc32)[C@@]12C(=O)Nc1ccccc12 | 6.25 (≈ 14.5 µM) | 30.1 | – | –
30 | NC(=O)c1cnccn1 [PYRAZINAMIDE] | 6.25 (≈ 50.8 µM) | – | – | –

Source: ChEMBL document CHEMBL4000148, “Design of novel dispirooxindolopyrrolidine and dispirooxindolopyrrolothiazole derivatives as potential antitubercular agents” (Bioorg Med Chem Lett, 2015)
